Data taken from patent US20160297829A1, “METHOD FOR PRODUCING AVENACIOLIDES AND USES THEREOF” (Academia Sinica, priority 2015, published 2016).
In brackets after ≈: the same amount, converted by molar mass. Several values for one entry are separate records, joined by “and”; a condition that tells them apart may be missing. Equal entries are not always repeated. Where two headings read alike, the source gives them in different places.

Columns and labels:
MRSA = assay: Transmission Electron Microscopy (TEM) of treated bacteria; format: cell-based, methicillin-resistant Staphylococcus aureus (MRSA)
Experimental: (§1) FIG. 1 are TEM photographs of MRSA (a-f) and A. baumannii (g-l) after being treated with the compounds of example 2 (128 μM) and fosfomycin (64 μM), in which (a) and (g) are un-treated S. aureus and A. baumannii; (b) and […] are those treated with the compound 10d, while (c) and (i) are treated with the compound of 13d; (d) and (j) are treated with the compound 14; (e) and (k) are treated with the compound 15; (f) and […] are treated with fosfomycin, in which CW, CM, IM, and OM respectively denote cell walls, cell membranes, inner membranes, and outer membranes; and
(§2) Transmission Electron Microscopy (TEM)
(§3) Exponential phase bacteria were treated with compounds at 4×MIC for 1 hr at 37° C. Then, the cells were washed and fixed and cut into thin slices and photographed using a Thin-layer TEM.

[1] = system: gram-positive bacteria, including MRSA; assay: Growth inhibition (MIC), summary over strains; format: cell-based; details: for MIC: Staphylococcus aureus, MRSA, text summary for compounds 10d and 13d over gram-positive strains; for anti-bacteria activity: statement in words
Source text: (§4) Minimum Inhibition Concentration (MIC) Assay
(§5) MIC assay is a standardized assay performed in accordance with the guidelines issued by Clinical and Laboratory Standard Institute (CLSI) that measures the ability of certain agent and/or a surface in inhibiting the growth of a microorganism or killing the microorganism after being in contact with that microorganism for 24 hrs. Accordingly, MIC is the lowest concentration of an anti-bacterial agent and/or a surface that will inhibit the visible growth of a microorganism after overnight culture.
(§6) In practice, microorganisms grown on the agar plates were re-suspended in phosphate-buffered saline (PBS) to an OD 600 of 0.1. Suitable amount of this suspension was added to the appropriate broth media at a final concentration of 5×10^5 colony-forming units (CFU)/mL. Then, 98 μL of the broth+cell solution for each strain was added to each well of 96-well assay plate. Solutions of the present compounds were freshly prepared in DMSO and then serial diluted in 2-fold steps in DMSO, resulting in a final concentrations of 0.004-256 μg/mL when diluted 1:50 in test broth. The initial inoculum for each strain was serially diluted in PBS and plated on appropriate agar plate media to ensure that the assay contained the desired number of CFU. MIC assay plates were incubated overnight at 37° C. under aerobic conditions.
In this example, the inhibitory effect of the isolated avenaciolide derivatives of example 2 (i.e., compounds 10d, 13d, 14, and 15) on the growth of gram-positive bacteria, including MRSA, were tested; and the results are summarized in Table 1.

[2] = system: S. aureus ATCC 33592 (MRSA strain); assay: Minimum Inhibition Concentration (MIC) assay; format: cell-based, methicillin-resistant Staphylococcus aureus (MRSA); details: Staphylococcus aureus, overnight at 37° C.
Source text: (§7) Various strains of microorganisms were used in the present disclosure, including Acinetobacter baumannii (ATCO 17978), Staphylococcus aureus (ATCO 29213), methicillin-resistant Staphylococcus aureus (MRSA) (ATCO 33592), Bacillus subtilis (ATCO 23857), and Escherichia Coli (ATCO 25922), which were purchased from American Type Culture Collection (ATCO), and cultured in Mueller-Hinton (MH) II agar plates or in MH broth.
as §4, §5, §6

MRSA MurA^C119D = molecular target: T1, MRSA MurA^C119D (Staphylococcus aureus, UniProt Q5HEA0, C119D); assay: MuraA assay (malachite green); format: biochemical, methicillin-resistant Staphylococcus aureus (MRSA); details: for IC50, MurA activity: MRSA MurA C119D mutant (fosfomycin resistant), 5 replicates
T1 sequence (Q5HEA0 1-421 C119D): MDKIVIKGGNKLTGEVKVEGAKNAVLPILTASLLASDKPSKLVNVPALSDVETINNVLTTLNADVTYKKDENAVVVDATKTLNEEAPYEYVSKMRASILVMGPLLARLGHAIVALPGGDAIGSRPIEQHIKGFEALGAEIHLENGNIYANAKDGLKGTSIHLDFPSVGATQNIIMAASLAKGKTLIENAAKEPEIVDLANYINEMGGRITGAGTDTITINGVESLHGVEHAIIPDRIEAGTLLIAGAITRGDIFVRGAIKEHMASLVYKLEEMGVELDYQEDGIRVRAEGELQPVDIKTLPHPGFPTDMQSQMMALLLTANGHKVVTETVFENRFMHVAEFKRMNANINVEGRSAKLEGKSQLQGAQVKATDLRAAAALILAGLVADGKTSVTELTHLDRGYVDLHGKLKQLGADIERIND
Experimental: (§8) In a standardized assay, MuraA enzymes were pre-incubated with the substrate UNAG and an inhibitor for 10 min at 37° C. To determine the influence of UNAG on the binding process, experiments were performed in the absence of UNAG during pre-incubation period. The reaction was initiated by the addition of the second substrate PEP, resulting in a total volume of […] with the following concentrations: E. Coli MurA or MRSA MurA 25 nM, UNAG 310 μM, PEP 620 μM, 50 mM HEPES, pH 7.6, DMSO 1% (v/v). The reaction was stopped after 60 min at 37° C. by adding 100 μL of Lanzetta reagent containing malachite green solution (0.045% (w/v)) and ammonium heptamolybdate (8.4% (v/v)) at a ratio of 3:1 and with 0.03% (w/v) Tergitol NP-40 as dye-stabilizing detergent. After 10 min, the absorbance at 620 nm was measured using a FlexStation 3 Microplate Reader (Molecular Devices). Finally, dose-response curves were generated by measuring the enzyme activity of five replicates at least 8 different compound concentrations. The resulting data were plotted and IC50 values indicating the concentration of the compound with a residual activity of 50% were determined.
(§9) Various types of MuraA enzymes, including those from E. Coli, wild type MRSA^WT, and MRSA^C119D mutant strain, were treated with any of the compounds 10d, 13d, or 14, as well as fosfomycin, in which MRSA^WT represents wild type MurA, and MRSA^C119D mutant strain represents MRSA strain in which the 119th amino acid residue, cysteine (C), is replaced by aspartic acid (D).

MRSA MurA^WT = MRSA MurA^WT (Staphylococcus aureus, UniProt Q5HEA0); assay: MuraA assay (malachite green); format: biochemical, methicillin-resistant Staphylococcus aureus (MRSA); details: IC50, MurA activity, MRSA MurA wild type 25 nM, UNAG 310 μM, PEP 620 μM, pH 7.6; 5 replicates
Experimental: as §8, §9

A. baumannii 17978 = assay: Minimum Inhibition Concentration (MIC) assay; format: cell-based, Acinetobacter baumannii
Source text: as §7, §4, §5, §6

E. coli ATCC 25922 = assay: Minimum Inhibition Concentration (MIC) assay; format: cell-based, Escherichia Coli
Source text: as §7, §4, §5, §6

A. baumannii = assay: Transmission Electron Microscopy (TEM) of treated bacteria; format: cell-based, Acinetobacter baumannii
Experimental: as §1, §2, §3

E coli MurA = E coli MurA (Escherichia coli, UniProt P0A749); assay: biochemical; details: IC50, MurA activity, E coli MurA 25 nM, UNAG 310 μM, PEP 620 μM, pH 7.6; 5 replicates
Sequence of E coli MurA (P0A749 whole entry): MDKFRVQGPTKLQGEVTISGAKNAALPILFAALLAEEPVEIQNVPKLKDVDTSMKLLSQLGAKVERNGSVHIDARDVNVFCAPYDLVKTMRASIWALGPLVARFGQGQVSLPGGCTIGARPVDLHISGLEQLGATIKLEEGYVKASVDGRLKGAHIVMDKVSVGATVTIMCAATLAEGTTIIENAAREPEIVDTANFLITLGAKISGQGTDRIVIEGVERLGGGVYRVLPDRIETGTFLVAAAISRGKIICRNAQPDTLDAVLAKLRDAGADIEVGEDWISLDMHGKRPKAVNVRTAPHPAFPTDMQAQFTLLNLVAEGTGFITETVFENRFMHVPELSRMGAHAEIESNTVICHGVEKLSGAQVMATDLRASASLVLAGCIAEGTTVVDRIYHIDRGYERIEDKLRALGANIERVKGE
Experimental: as §8, §9

[3] = system: Mice macrophage cell line RAW 264.2; assay: AlamaBlue cell viability assay; format: cell-based; details: 24 hrs
Experimental: Mice macrophage cell line RAW 264.2 was used in the present disclosure. RAW 264.2 cells were cultured in RPMI 1640 medium supplemented with 10% fetal calf serum (FCS) and maintained in an environment of 5% CO2/95% air at 37° C.
AlamaBlue Cell Viability Assay
The alamarBlue cell viability assay uses a non-toxic, water-soluble resazurin dye that yields a fluorescent signal and a colorimetric change when incubated with metabolically active cells. The assay is based on the findings that metabolically active cells (or viable cells) may keep the culture medium in a reduced state, whereas the non-viable cells will turn the culture medium into an oxidized state, thereby rendering the redox indicator in the medium (i.e., resazurin dye) to convert from its non-fluorescent oxidized form (blue color) to its fluorescent reduced form (pink color). Thus, the cell viability may be monitored by the fluorescent signal changes at 590 nm.
Cells were plated in 96-well plates at a density of 5,000 cells/100 μL/well for 24 hrs, then 10 μL AlamarBlue™ reagent (AbD Serotee Ltd., Oxford, UK) and various concentrations (i.e., 12.5, 25, 50 or 100 μM) of the test compound (e.g., the compound of example 2) were added, and incubated for 24 hrs. The plates were then placed at a fluorescence reader and fluorescent signals at 590 nm were measured.
In general, mice macrophages were treated with various concentrations of the compounds of example 2 for 24 hrs, the viability of cells were then analyzed by fluorescence analysis in accordance with procedures described in “Materials and Methods” section.

S. aureus ATCC 29213 = assay: Minimum Inhibition Concentration (MIC) assay; format: cell-based; details: Staphylococcus aureus, ATCC29213, overnight at 37° C.
Source text: as §7, §4, §5, §6

B. subtilis ATCC 23857 = assay: Minimum Inhibition Concentration (MIC) assay; format: cell-based; details: Bacillus subtilis, ATCC23857
Source text: as §7, §4, §5, §6

[4] = 128 μg/mL (FIG. 1 legend: 128 μM), treated for an hr
[5] = 17978, Acinetobacter baumannii, read-out: MIC for gram-negative bacteria
[6] = Acinetobacter baumannii, A. baumannii 17978, overnight at 37° C., read-out: MIC
[7] = Escherichia coli, ATCC25922, overnight at 37° C., read-out: MIC
[8] = 12.5 or 25 μM, fluorescence 590 nm
[9] = 50 or 100 μM, fluorescence 590 nm
[10] = B. subtilis ATCC 23857, overnight at 37° C., read-out: MIC
[11] = fosfomycin 64 μg/mL, positive control

Row | Compound | cell wall structure in TEM photographs (MRSA; [4]) | MIC [1] [µg/mL] | MIC [2] [µg/mL] | IC50 (MRSA MurA^C119D) [µM] | IC50 (MRSA MurA^WT) | MIC (A. baumannii 17978; [5]) [µg/mL] | MIC (A. baumannii 17978; [6]) [µg/mL] | MIC (E. coli ATCC 25922; [7]) [µg/mL] | cell wall structure in TEM photographs (A. baumannii; [4]) | IC50 (E coli MurA) | growth (viability) of macrophages [3, 8] | growth (viability) of macrophages [3, 9] | MIC (S. aureus ATCC 29213) [µg/mL] | MIC (B. subtilis ATCC 23857; [10]) [µg/mL] | anti-bacteria activity [1] | IC50, MurA activity (MRSA MurA^C119D) | other results
1 | C=C1C(=O)O[C@H]2C(=O)O[C@H](CCCCCCCC)[C@@H]12 [Compound 10d] | ruptured | 16 to 32 (≈ 60.1 to 120 µM) | 32 (≈ 120 µM) | 21.5 | 8.3 µM | 256 (≈ 961 µM) | 256 (≈ 961 µM) | 128 (≈ 481 µM) | not affected | 0.9 to 10.8 µM and 0.9 µM | slightly affected | significant growth inhibition | 16 (≈ 60.1 µM) | 64 (≈ 240 µM) | – | – | –
2 | C=C(C(=O)OC)[C@@H]1[C@@H](CCCCCCCC)OC(=O)[C@@H]1O [Compound 13d] | ruptured | 16 to 32 (≈ 53.6 to 107 µM) | 16 (≈ 53.6 µM) | 7.9 | 6.7 µM | 256 (≈ 858 µM) | 256 (≈ 858 µM) | 128 (≈ 429 µM) | not affected | 0.9 to 10.8 µM and 2.8 µM | slightly affected | significant growth inhibition | 32 (≈ 107 µM) | 32 (≈ 107 µM) | – | – | –
3 | C=C(C(=O)O)[C@@H]1[C@@H](CCCCCCCC)OC(=O)[C@@H]1O [Compound 14] | slightly affected | – | 256 (≈ 900 µM) | – | ~71 µM and 71 µM | – | – | – | completely unaffected | 0.9 to 10.8 µM and 10.8 µM | slightly affected | significant growth inhibition | 256 (≈ 900 µM) | 256 (≈ 900 µM) | neither compound 14, nor compound 15 possessed any anti-bacteria activity | in-effective and No | MIC (A. baumannii 17978; A. baumannii 17978, overnight at 37° C.): no; MIC (E. coli ATCC 25922; overnight at 37° C.): no
4 | CCCCCCCC[C@H]1OC(=O)[C@@H]2OC(=O)[C@@H](C)[C@H]12 [Compound 15] | neither MRSA nor A. baumannii was affected | – | – | – | – | – | – | – | neither MRSA nor A. baumannii was affected | – | – | – | – | – | neither compound 14, nor compound 15 possessed any anti-bacteria activity | – | growth (viability) of macrophages ([3]; various concentrations (12.5, 25, 50 or 100 μM)): completely un-affected
5 | C[C@@H]1O[C@@H]1P(=O)(O)O [fosfomycin, reference compound] | – | – | 64 (≈ 464 µM) | – | 1.6 µM | – | – | 64 (≈ 464 µM) | – | 0.4 µM | – | – | 4 (≈ 29 µM) | – | – | failed to suppress and No | cell wall structure in TEM photographs (MRSA; [11]): ruptured; MIC (A. baumannii 17978; Acinetobacter baumannii, 17978): 256 µg/mL (≈ 1850 µM); cell wall structure in TEM photographs (A. baumannii; [11]): ruptured; MIC (B. subtilis ATCC 23857): 128 µg/mL (≈ 927 µM)
